# Where no end group is shown, it is not given here. [ ]: non-standard residue; d: D form.
# How the values were obtained:
# [1] = system: dividing A375 human melanoma cells; experiment: Survival study, orthotopic A375 xenograft; type: in vivo, mouse; settings: local injection once daily for two days
# Excerpt: Mice were aged between 3-8 months and 20-30 g in weight and were housed in specific pathogen free cages. Animals were randomly distributed among treatment groups by assigning mice within the same cage to different treatment regimens. To minimise confounders, mouse treatment order was randomised within each cage. Male and female mice were distributed between all treatment groups since the chemicals used were directly injected and are not metabolized. Researchers were not blinded to the group allocation, but all attempts were made to analyse the data without knowing treatment conditions. NOD.Cg-Prkdcscid Il2rgtm1Wjl/SzJ (NSG) were purchased from The Jackson Laboratory (IMSR Cat# JAX:005557, RRID:IMSR_JAX:005557). NOD.Cg-KitW-41J Tyr + Prkdcscid Il2rgtm1Wjl/ThomJ (NBSGW) were purchased from The Jackson Laboratory (IMSR Cat# JAX:026622, RRID:IMSR_JAX:026622). Immunocompromised mice used for these experiments were all in the NSG background; however, some mice were F1 generation of NSG x NBSGW, thus the brown coat colour as NBSGW mice have tyrosinase. Xenografts containing senescent cells were established by injecting A375-Luc/iRFP human melanoma cells which contained a luciferase expressing gene into immunocompromised NSG ears. Senescence was induced in the cells via doxorubicin treatment (40 nM) then resuspended in DMEM prior to injection. Each ear was then injected with 50 µL containing approximately 1,000,000 cells. The ears were treated once daily for two days with 50 µL of either 5 mg/mL peptide, or saline. To control for confounders, each mouse contained one ear treated with saline (control). For imaging, mice were injected with 3 mg luciferin intravenously and imaged before and after treatment. Transgenic mice (BrafCA, PtenloxP, Tyr::CreERT2) were purchased from The Jackson Laboratory (IMSR Cat# JAX:013590, RRID:IMSR_JAX:013590). These mice were maintained on a C57Bl6 background and all experimental mice contained Tyr::CreER with either Braf^CA/+, Pten^fx/+; Braf^CA/CA, Pten^fx/+, or Braf^CA/+, Pten^fx/fx. […] Hypopigmented melanomas sporadically formed over the next 3-5 months, typically on the back of the mouse. These melanomas were then directly injected with 100 µL of either 20 mg/mL ES2+10%DMSO, saline+10%DMSO, saline+10%Dabrafenib, or 20 mg/mL ES2+10%Dabrafenib. The researchers were not blinded to the experiment, but each mouse contained an internal control and all imaging was done with the same exposure times based upon control tissue. For survival analyses, either 750,000 or 25,000 A375-Luc/iRFP cells were injected intradermally into NSG mice. […] Mice were then monitored daily and allowed to age until a humane endpoint was reached according to our IACUC protocol, which in this case was tumours of 2 cm in size. […]
# [2] = system: Braf/Pten sporadic melanomas; experiment: SA-β-gal staining of melanomas in transgenic mice; type: in vivo, mouse
# Procedure: Senescent and dividing cells or tissue sections were fixed with 4% formaldehyde. The cells were washed with PBS twice before staining with X-gal solution [1 mg/mL 5-bromo-4-chloro-3inolyl-β-D-galactoside (Boehringer Manneheim #745-740) in N,N-dimethylformamide, 5 mM potassium ferricyanide crystalline (#P-8131), 5 mM potassium […] (#P-3289), 2 mM magnesium chloride, and 1x PBS, pH 6.0. Cells or tissue sections were incubated at 37°C for 24 hours. After staining, cells were washed with PBS before being counted and imaged on the Leica Dmi8 microscope.
# Mice were aged between 3-8 months and 20-30 g in weight and were housed in specific pathogen free cages. Animals were randomly distributed among treatment groups by assigning mice within the same cage to different treatment regimens. To minimise confounders, mouse treatment order was randomised within each cage. Male and female mice were distributed between all treatment groups since the chemicals used were directly injected and are not metabolized. Researchers were not blinded to the group allocation, but all attempts were made to analyse the data without knowing treatment conditions. […] Mice were then monitored daily and allowed to age until a humane endpoint was reached according to our IACUC protocol, which in this case was tumours of 2 cm in size. […]
# [3] = system: Braf/Pten sporadic melanomas; experiment: TUNEL staining of melanomas in transgenic mice; type: in vivo, mouse; settings: intratumoural injection daily over two days, single agents vs saline
# Procedure: Fixed frozen sections of melanomas were stained with the Click-IT Plus TUNEL assay (ThermoFisher C10618) according to the manufacturer's protocol. Stained sections were imaged with a Zeiss A2 upright microscope at either 20x or 10x. At least one of each treatment group were stained and imaged at the same time. All sections from each staining group were set to the same exposure time for TUNEL and DAPI. Any normalization of background levels was performed in Adobe Photoshop and set to the same scale for the entire image and for all other images.
# senescent A375 cells = experiment: Peptide efficacy in culture (MTS), senescent cells; type: cell-based, human; settings: for senolytic activity (in words): senescent vs dividing A375 cells; for IC50: doxorubicin (40 nM)-induced senescent A375 cells, peptide replenished daily for two days, MTS, best fit polynomial, read-out: IC50^sen, concentration to kill 50% of senescent cells
# Procedure: (§1) Cell lines were treated with chemotherapy, doxorubicin (Sigma, Cat. No. 2252) to induce senescence (200 nM for HCT116, 100 nM for B16-F10 and MCF7, 50 nM for SW480 and DLD-1, 40 nM for A375-Luc/iRFP and MCF10a). MCF7 cells were treated with CDK4/6 inhibitor, palbociclib (Selleck Chemicals: S1116) to induce senescence (5 µM). A375 cells were treated with Braf inhibitor, Dabrafenib (Selleck Chemicals: S2807), to induce senescence (10 µM). Peptide efficacy experiments were performed by seeding 10,000 – 20,000 cells in a 96-well plate. The cells were given doxorubicin twice to make the cells senescent. After removal of doxorubicin, the plate was treated with varying concentrations of peptide. The peptide was replenished daily for two days. Cellular proliferation was quantified using the Promega CellTiter 96™ AQueous One Solution Cell Proliferation Assay (MTS) after 2 hours according to the manufacturer's protocol (Promega, G3581). To control for the charge of ES2, ProteoJuice (Millipore Sigma, 71281) was used to deliver ES2 using the manufacturers protocol, except 50 µL of 2 mM ES2 was mixed with 25 µL of ProteoJuice. Varying concentrations of the mixture were administered to A375 cells along with a control of only ProteoJuice.
# [4] = system: senescent A375 human melanoma cells; experiment: Orthotopic xenograft of senescent luciferase A375 cells in mouse ears; type: in vivo; settings: NSG mouse ears, local injection 50 µL of 5 mg/mL once daily for two days, imaged 24 hours after second treatment; ANOVA p<0.01
# Excerpt: Mice were aged between 3-8 months and 20-30 g in weight and were housed in specific pathogen free cages. Animals were randomly distributed among treatment groups by assigning mice within the same cage to different treatment regimens. To minimise confounders, mouse treatment order was randomised within each cage. Male and female mice were distributed between all treatment groups since the chemicals used were directly injected and are not metabolized. Researchers were not blinded to the group allocation, but all attempts were made to analyse the data without knowing treatment conditions. NOD.Cg-Prkdcscid Il2rgtm1Wjl/SzJ (NSG) were purchased from The Jackson Laboratory (IMSR Cat# JAX:005557, RRID:IMSR_JAX:005557). NOD.Cg-KitW-41J Tyr + Prkdcscid Il2rgtm1Wjl/ThomJ (NBSGW) were purchased from The Jackson Laboratory (IMSR Cat# JAX:026622, RRID:IMSR_JAX:026622). Immunocompromised mice used for these experiments were all in the NSG background; however, some mice were F1 generation of NSG x NBSGW, thus the brown coat colour as NBSGW mice have tyrosinase. Xenografts containing senescent cells were established by injecting A375-Luc/iRFP human melanoma cells which contained a luciferase expressing gene into immunocompromised NSG ears. Senescence was induced in the cells via doxorubicin treatment (40 nM) then resuspended in DMEM prior to injection. Each ear was then injected with 50 µL containing approximately 1,000,000 cells. The ears were treated once daily for two days with 50 µL of either 5 mg/mL peptide, or saline. To control for confounders, each mouse contained one ear treated with saline (control). For imaging, mice were injected with 3 mg luciferin intravenously and imaged before and after treatment. Transgenic mice (BrafCA, PtenloxP, Tyr::CreERT2) were purchased from The Jackson Laboratory (IMSR Cat# JAX:013590, RRID:IMSR_JAX:013590). These mice were maintained on a C57Bl6 background and all experimental mice contained Tyr::CreER with either Braf^CA/+, Pten^fx/+; Braf^CA/CA, Pten^fx/+, or Braf^CA/+, Pten^fx/fx. […] Hypopigmented melanomas sporadically formed over the next 3-5 months, typically on the back of the mouse. These melanomas were then directly injected with 100 µL of either 20 mg/mL ES2+10%DMSO, saline+10%DMSO, saline+10%Dabrafenib, or 20 mg/mL ES2+10%Dabrafenib. The researchers were not blinded to the experiment, but each mouse contained an internal control and all imaging was done with the same exposure times based upon control tissue. For survival analyses, either 750,000 or 25,000 A375-Luc/iRFP cells were injected intradermally into NSG mice. Different combinations of drugs were locally injected to the region once daily for two days with 50 µL of either 5 mg/mL ES2, 10%Dabrafenib, or 5mg/mL ES2+10%Dabrafenib. Dabrafenib was made at 100 mg/mL in DMSO. Mice were then monitored daily and allowed to age until a humane endpoint was reached according to our IACUC protocol, which in this case was tumours of 2 cm in size. Aged C57Bl6 male mice were purchased from the Jackson Laboratory (IMSR Car# JAX:000664, RRID:IMSR_JAX:000664) at 72 weeks of age and were started on the experiment at 82 weeks. Mice were treated with 3 mg of ES2 via tail vein injection weekly for three weeks and weighed weekly. Blood was drawn prior to beginning experiments and at the endpoint. To generate plasma, blood was centrifuged at 1,500g for 10 minutes, then 2,500g for 10 minutes, then frozen for later analyses. […]
# dividing A375 cells = experiment: Peptide efficacy in culture (MTS), dividing cells; type: cell-based, human; settings: for IC50: peptide replenished daily for two days, MTS, best fit polynomial, read-out: IC50^div, concentration to kill 50% of dividing cells
# Procedure: as §1
Molecule,senolytic activity (in words) (senescent A375 cells),IC50 (senescent A375 cells),luciferase signal compared to E1 and saline [4],IC50 (dividing A375 cells),other results
CC(C)(C)c1nc(-c2cccc(NS(=O)(=O)c3c(F)cccc3F)c2F)c(-c2ccnc(N)n2)s1 [Dabrafenib],–,–,–,–,"effect on survival time, in words ([1]; 25,000 A375 cells): no effect on survival time; effect on survival time, in words ([1]; 750,000 A375 cells): did not alter survival times; increase of fraction of SA-β-gal+ cells within the melanoma over saline ([2]; Dabrafenib n=8, saline n=5, p<0.001): 11 fold; senescence of the melanoma compared to vehicle, in words ([2]; intratumoural injection daily over two days): strongly induced senescence; effect on apoptosis (TUNEL), in words [3]: no effect on apoptosis; effect on apoptosis (TUNEL), in words ([3]; listed as Dab): no difference"
H-GRKKRRQRRRPPPRKGGSRRRAWGNQRYARLIRQAIESAPEKRLTLA-OH [E1],negligible senolytic activity,–,–,–,–
PRKGGRRRRAWGRRRRRRRLRRRLRRAPRKRLTLA [ES2r1],highest senolytic activity,~6 µM,statistically significantly reduced luciferase signal,~13 µM,–
PRKGGSRRRAWGRRRYRRRLRRRLRRAPRKRLTLA [ES2r2],slightly lower senolytic activity,~9 µM,statistically significantly reduced luciferase signal,> 20 µM,–
YGRKKRRQRRRYGRKKRRQRRRYGRKKRRQRRR [ES1],highest senolytic activity,~4 µM,statistically significantly reduced luciferase signal,~19 µM,–
"[dL][dT][dL][dR][dK][dE][dP][dA][dS][dE][dI][dA][dQ][dS][dI][dL][dE][dA][dY][dS][dQ][dN]G[dW][dA][dN][dR][dR][dS]GG[dK][dR][dP][dP][dP][dR][dR][dR][dQ][dR][dR][dK][dK][dR]G [FOXO4-DRI, reference compound]",–,–,statistically significantly reduced luciferase signal,–,lytic activity in dividing cells (in words) (dividing A375 cells): minimal lytic activity in dividing cells
